The supplement of paper PMC12592484

What was measured:
Assay in all cases: drug sensitivity score (DSS2, normalised partial AUC of dose-response, 72 h CellTiter-Glo viability) (DSS (dimensionless)); higher = more sensitive (stronger growth inhibition / cytotoxicity); extreme values may be limits of the assay
CAF#3 = tested on: CAF#3 (primary prostate cancer-associated fibroblasts of myCAF-like type)
Summary of the method: (§1)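 Low-passage primary prostate cancer-associated fibroblasts, PF179T, WPMY-1, LNCaP and 22Rv1 cells were seeded into 384-well plates carrying pre-dispensed compounds at five doses covering a 10,000-fold range. After 72 h, viability was read by CellTiter-Glo 2.0 luminescence. Responses were scaled to vehicle and positive-control wells. The drug sensitivity score (DSS2) is a partial area under the fitted logistic dose–response curve divided by the log of its upper asymptote, computed in BREEZE; higher means more sensitive.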

CAF#4 = tested on: CAF#4 (primary prostate cancer-associated fibroblasts of iCAF-like type)
Summary of the method: as §1

CAF#2 = tested on: CAF#2 (primary prostate cancer-associated fibroblasts of iCAF-like type)
Summary of the method: as §1

22Rv1 = tested on: 22Rv1
Summary of the method: as §1

CAF#7 = tested on: CAF#7 (primary prostate cancer-associated fibroblasts of myCAF-like type)
Summary of the method: as §1

CAF#6 = tested on: CAF#6 (primary prostate cancer-associated fibroblasts of iCAF-like type)
Summary of the method: as §1

CAF#5 = tested on: CAF#5 (primary prostate cancer-associated fibroblasts of myCAF-like type)
Summary of the method: as §1

CAF#1 = tested on: CAF#1 (primary prostate cancer-associated fibroblasts of myCAF-like type)
Summary of the method: as §1

PF179T = tested on: PF179T
Summary of the method: as §1

WPMY-1 = tested on: WPMY-1
Summary of the method: as §1

LNCAP = tested on: LNCAP
Summary of the method: as §1

| SMILES | drug sensitivity score (CAF#3) | drug sensitivity score (CAF#4) | drug sensitivity score (CAF#2) | drug sensitivity score (22Rv1) | drug sensitivity score (CAF#7) | drug sensitivity score (CAF#6) | drug sensitivity score (CAF#5) | drug sensitivity score (CAF#1) | drug sensitivity score (PF179T) | drug sensitivity score (WPMY-1) | drug sensitivity score (LNCAP) |
| --- | --- | --- | --- | --- | --- | --- | --- | --- | --- | --- | --- |
| CCc1cc2c(cc1N1CCC(N3CCOCC3)CC1)C(C)(C)c1[nH]c3cc(C#N)ccc3c1C2=O [Alectinib] (tested concentration range 0.1-1000 nM) | 0 | 0 | 0.2 | 0.2 | 0 | 0 | 0.3 | 1 | 0 | 0 | 0.5 |
| COCCNCc1ccc(-c2cc3nccc(Oc4ccc(NC(=O)C5(C(=O)Nc6ccc(F)cc6)CC5)cc4F)c3s2)nc1 [Sitravatinib] (tested concentration range 0.2-2500 nM) | 4.5 | 6.6 | 9.7 | 4.7 | 5.7 | 3.4 | 6.6 | 5.5 | 6.7 | 5.9 | 2.1 |
| O=C(CCCCCCC(=O)Nc1ccccc1)NO [Vorinostat] (tested concentration range 1-10000 nM) | 6.3 | 4.9 | 6.5 | 9.7 | 3.1 | 4.2 | 4.1 | 4 | 3.4 | 9.7 | 10 |
| COc1cc2ncnc(Nc3ccc(F)c(Cl)c3)c2cc1OCCCN1CCOCC1 [Gefitinib] (tested concentration range 1-10000 nM) | 0.2 | 2.8 | 2 | 3.9 | 0.2 | 0.2 | 0.5 | 0 | 1.7 | 2.1 | 2.6 |
| O=C(c1ccc(C(=O)N2CCC(N3CCCC3)CC2)c(Nc2ccccc2)c1)N1CCC(N2CCCC2)CC1 [UNC1215] (tested concentration range 1-10000 nM) | 0 | 0 | 0 | 0 | 0 | 0 | 0 | 0 | 0 | 0 | 0 |
| CC1(C)CC[C@]2(NC(=O)C(C)(F)F)CC[C@]3(C)[C@H](C(=O)C=C4[C@@]5(C)C=C(C#N)C(=O)C(C)(C)[C@@H]5CC[C@]43C)[C@@H]2C1 [Omaveloxolone] (tested concentration range 1-10000 nM) | 4.6 | 17 | 23.2 | 14.4 | 4.8 | 5.3 | 18.5 | 19.8 | 14.8 | 18.4 | 23.9 |
| CC[C@@H]1CN(C(=O)NCC(F)(F)F)C[C@@H]1c1cnc2cnc3[nH]ccc3n12 [Upadacitinib] (tested concentration range 1-10000 nM) | 0 | 0.1 | 1.3 | 0 | 0 | 0 | 0.8 | 0 | 0 | 0.5 | 0 |
| CN1CCN(c2cc(C(=O)Nc3ccc4c(c3)-c3c(c(C(N)=O)nn3-c3ccc(F)cc3)CC4)c(Cl)cn2)CC1 [PHA 408] (tested concentration range 1-10000 nM) | 2.9 | 4.2 | 7 | 6.1 | 3.7 | 1.2 | 5.9 | 7.2 | 1.4 | 4.6 | 7.4 |
| CC(C)(C)c1cc(NC(=O)Nc2ccc(-c3cn4c(n3)sc3cc(OCCN5CCOCC5)ccc34)cc2)no1 [Quizartinib] (tested concentration range 0.1-1000 nM) | 0 | 0 | 2.3 | 0 | 0 | 0 | 1.5 | 0.3 | 0 | 1.4 | 0 |
| C[C@@H]1C[C@H]2[C@@H]3CCC4=CC(=O)C=C[C@]4(C)[C@@]3(F)[C@@H](O)C[C@]2(C)[C@@]1(O)C(=O)CO [Dexamethasone] (tested concentration range 1-10000 nM) | 0 | 0 | 0 | 0 | 0.3 | 0 | 0 | 0 | 0 | 0 | 0 |
| CCN(CC)Cc1ccc2cc(COC(=O)Nc3ccc(C(=O)NO)cc3)ccc2c1 [Givinostat] (tested concentration range 0.1-1000 nM) | 1.8 | 2.3 | 4.2 | 9.8 | 3.1 | 3.6 | 4.9 | 2.4 | 3.9 | 11.4 | 9.3 |
